Entries after “also recorded” stand apart in the source; their conditions may differ.
Tests used:
[1] = tested on: CaBP22^−333::GUS expression; assay: CaBP22-333::GUS reporter assay, liquid-grown seedlings (saturation treatment); assay type: in vivo, Arabidopsis thaliana
Method: (§1) B. Trypan blue staining of CaBP22^−333 : :GUS seedlings incubated for 24 h in medium containing compounds at the indicated concentrations.
(§2) To quantify the bioactivity of HTC, we performed various assays with one week-old CaBP22^−333::GUS seedlings submerged in liquid growth medium containing HTC or mock-solution (saturation treatment). […] To examine if HTC induces phytotoxicity, we stained Col-0 seedlings after saturation treatment with trypan blue.
(§3) To determine which substituents or moieties of the HTC molecule are critical for its defense-inducing activity, seven commercially available HTC analogs were analyzed (FIG. 3A). We compared the ability of these compounds to induce GUS expression in saturation treated CaBP22^−333::GUS Arabidopsis seedlings to that of DCA and HTC. […] We also used trypan blue staining to examine HTC-analog-induced phytotoxicity.

[2] = tested on: Peronospora isolate Noco2; assay: Noco2 spore inhibition assay in soil-grown seedlings; assay type: in vivo, Hyaloperonospora arabidopsidis; conditions: for level of protection / defense-inducing activity against Noco2 / concentration giving significant protection against Noco2: dose-response; for level of protection / defense-inducing activity against Noco2: three-week old Col-0 (FIG. 3B); for concentration giving significant protection against Noco2: three-week old Col-0, infected 24 h after treatment, 7 dpi (FIG. 3B); for resistance to Noco2: 100 μM sprayed 1 h prior to pathogen challenge; for suppression of Noco2 spore formation / resistance to Noco2: 7 dpi
Method: FIG. 2. Kinetic analysis of chemically-induced disease resistance. Experiments were conducted with three-week-old soil-grown Col-0 seedlings sprayed with 100 μM HTC, DCA, INA, or mock solution (1% DMSO) at the indicated times prior to being sprayed with 2×10^4 mL^−1Noco2 spores (2 ml per pot). Peronospora (Hyeloperonospora arabidopsidis) spores were counted 7 dpi (days post-infection). Mean and SE values were calculated from a minimum of three biological replicates and the average of those is shown above.
FIG. 3. Structure-activity analysis of HTC analogs. A. Chemical structures of DCA, HTC and tested HTC analogs. Chiral centers of the HTC skeleton are indicated by “1*” and “2*” in HTC. B. Noco2 spore inhibition assay. Three-week-old soil-grown Col-0 seedlings were spray-infected 24 h after treating with varying concentrations of each synthetic elicitor and then assayed at 7 dpi for spore growth. 100% inhibition=0 spores. […] The average of those three replicates is shown. Significant differences of compound-treated compared to mock-treated seedlings determined by Student's t-tests (p<0.05) are marked by colored four pointed stars.
(§4) FIG. 4. Analysis of HTC activity in defense mutant plants. A & B. RT-PCR analysis of CaBP22 transcript levels in Col-0 (wild-type) and mutant backgrounds 24 h after spraying 2-week-old seedlings with mock-solution (1% DMSO), 100 μM DCA, or HTC. RT-PCRs with ACTIN are shown as loading controls. […] C. Analysis of HTC activity in Col-0 or nahG background. Experiments were conducted with three-week-old soil-grown Col-0 or nahG seedlings sprayed with 100 μM HTC, 100 μM DCA, or mock-solution (1% DMSO) 24 h prior to infection with 2×10^4 virulent Noco2 spores ml^−1 (2 ml per pot). Spores were counted at 7 dpi. Mean and SE values were calculated from a minimum of three biological replicates and their averages of are shown.
We next tested whether HTC could induce pathogen resistance in soil-grown plants. […] To determine if HTC differs from other synthetic elicitors in the kinetics of defense induction, Col-0 seedlings were sprayed with 100 μM of INA, DCA, HTC, or mock, 1 h, 3 h, 1 d, 3 d, or 6 d prior to pathogen challenge.
We performed a dose-response analysis of inhibition of Noco2 spore development in three-week old Col-0 plants using the HTC analogs (FIG. 3B).
We also compared the biological activity of s-HTC to that of p-HTC by spraying a concentration gradient of both preparations on soil-grown Col-0 seedlings 24 h prior to challenge with Noco2.

Col-0 seedlings = assay: Trypan blue staining for phytotoxicity (cell death) after saturation treatment; assay type: in vivo, Arabidopsis thaliana; conditions: treated for 24 h at 300 μM
Method: as §1, §2, §3

CaBP22 transcript levels = assay: RT-PCR analysis of CaBP22 transcript levels in Col-0 and defense mutants; assay type: in vivo, Arabidopsis thaliana
Method: as §4
To establish the mode-of-action of HTC, we performed reverse transcription (RT)-PCRs examining transcript levels of the defense marker gene CaBP22 in Col-0 and a set of mutant lines representing various defense signaling mechanisms. […] In the transgenic nahG line, which is compromised in the accumulation of salicylic acid (SA), the ability of HTC to induce CaBP22 expression was blocked, while that of DCA was not affected (FIGS. 4A and B).

Arabidopsis roots = assay: Root length of Col-0 seedlings on 1/2 MS plates containing synthetic elicitor; assay type: in vivo, Arabidopsis thaliana; conditions: for enhancement of root length / root growth: HTC at 1 μM only, DCA and INA at various tested concentrations; for root growth at higher concentrations: higher doses, range tested 1 to 100 μM
Method: FIG. 5. Relative root length of Col-0 plants grown on synthetic elicitors. Col-0 seedlings were plated in square petri dishes on ½ MS medium containing 1, 10, 25, 50, 75 or 100 μM of HTC, DCA, INA, or the respective controls (solvent only). A. Roots of Col-0 seedlings grown on 1 uM HTC or control (0.01% DMSO) medium 14 days after germination. B. Average percent Col-0 root length grown on synthetic elicitors compared to Col-0 grown on control. Root length was measured at day 3, 5, 7, 11, and 14. Results are expressed as percentages of the average root length on the respective synthetic elicitor treatments compared to their controls. The average, standard error, and Student's t-test (p<0.05) were calculated from these values. Significant differences between synthetic elicitor-treated and control-treated plants are marked by a star above the corresponding data point. Y-axis represents relative root growth in the presence of synthetic elicitor. CSE: concentration of synthetic elicitor; dpg: days post germination.
We compared the ability of other synthetic elicitors to enhance growth, and performed root growth assays with INA, DCA, and HTC (FIG. 5B). Each synthetic elicitor was added to the solid media plates at concentrations ranging from 1 to 100 μM. The plates were placed upright in a growth chamber, and root lengths were measured at 3 d-intervals. To merge data sets, root length was expressed as a percentage of their value relative to the average of the mock (control) for that data set. Normalizing each root length to its control allowed all replicates to be combined together to calculate averages, standard errors, and perform statistical tests (FIG. 5B).

[3] = tested on: Hyaloperonospora arabidopsidis (Peronospora); conditions: Arabidopsis; cited from earlier work
Pseudomonas syringae = conditions: Arabidopsis; cited from earlier work

O=C(O)C1CSC(c2ccccc2O)N1 (centres unmarked) [CMP140, 2-(2-hydroxy-phenyl)-thiazolidine-4-carboxilic acid]
efficiency of GUS induction among HTC analogs [1]: most efficient HTC analog | level of protection / defense-inducing activity against Noco2 [2]: less efficient defense inducer compared to HTC | concentration giving significant protection against Noco2 [2]: at least 100 uM

Nc1c(Cl)cc(Cl)cc1C(=O)O [DCA, 3-5-dicholoroanthranlilic acid, reference compound]
seedlings with cell death (trypan blue staining) (Col-0 seedlings): 100% | resistance to Noco2 [2]: full resistance | suppression of Noco2 spore formation / resistance to Noco2 ([2]; Col-0, 100 μM sprayed 24 h prior to infection): induced resistance; also recorded: significantly suppresses | level of protection / defense-inducing activity against Noco2 [2]: highest protection | concentration giving significant protection against Noco2 [2]: 10 µM | suppression of Noco2 spore formation / resistance to Noco2 ([2]; nahG, 100 μM sprayed 24 h prior to infection): induced resistance; also recorded: significantly suppresses | CaBP22 transcript levels (CaBP22 transcript levels; Col-0, 24 h after spraying 100 μM): induced an increase | ability to induce CaBP22 expression (CaBP22 transcript levels; transgenic nahG line, 100 μM): not affected | CaBP22 transcript levels (CaBP22 transcript levels; wrky70-3 mutant, 24 h after spraying 100 μM): not | enhancement of root length / root growth (Arabidopsis roots): enhanced Arabidopsis root growth | root growth at higher concentrations (Arabidopsis roots): strongly inhibited | disease resistance [3]: fast, strong and transient disease resistance | disease resistance (Pseudomonas syringae): fast, strong and transient disease resistance

O=C(O)c1cc(Cl)nc(Cl)c1 [INA, reference compound]
resistance to Noco2 [2]: full resistance | enhancement of root length / root growth (Arabidopsis roots): enhanced Arabidopsis root growth | root growth at higher concentrations (Arabidopsis roots): not

O=C(O)C1CSCN1 (centres unmarked) [T4CA, 4-carboxy-4-thiazolidinyl, reference compound]
level of protection / defense-inducing activity against Noco2 [2]: did not result in significant immunity
